Source: article PMC12140364, “Meisoindigo Acts as a Molecular Glue to Target PKMYT1 for Degradation in Chronic Myeloid Leukemia Therapy” (Advanced Science, 2025)

Columns and labels:
[1] = molecular target: T1, TRIM25 (Homo sapiens, UniProt Q14258); assay: MST; type: binding
T1 construct: recombinant TRIM25 (Origene, TP303757)

[2] = molecular target: T2, PKMYT1 (protein kinase, membrane-associated tyrosine/threonine 1) (Homo sapiens, UniProt Q99640); assay: MST; LC-MS/MS adduct mapping; CETSA; C301A mutant abolishes binding
T2 construct: residues 75-362, N-terminal 6xHis, E. coli
T2 sequence (Q99640 75-362): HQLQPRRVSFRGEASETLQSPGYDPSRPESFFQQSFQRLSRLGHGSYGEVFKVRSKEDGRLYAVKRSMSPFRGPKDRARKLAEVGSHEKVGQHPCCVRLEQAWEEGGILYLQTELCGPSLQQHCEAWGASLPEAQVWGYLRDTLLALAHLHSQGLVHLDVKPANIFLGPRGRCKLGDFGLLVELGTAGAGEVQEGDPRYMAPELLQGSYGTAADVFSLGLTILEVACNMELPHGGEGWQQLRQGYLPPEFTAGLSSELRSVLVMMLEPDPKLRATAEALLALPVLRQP

[3] = molecular target: T3, PKMYT1 (Homo sapiens, UniProt Q99640); assay: enzyme activity assay; type: biochemical
T3 sequence (Q99640 1-499): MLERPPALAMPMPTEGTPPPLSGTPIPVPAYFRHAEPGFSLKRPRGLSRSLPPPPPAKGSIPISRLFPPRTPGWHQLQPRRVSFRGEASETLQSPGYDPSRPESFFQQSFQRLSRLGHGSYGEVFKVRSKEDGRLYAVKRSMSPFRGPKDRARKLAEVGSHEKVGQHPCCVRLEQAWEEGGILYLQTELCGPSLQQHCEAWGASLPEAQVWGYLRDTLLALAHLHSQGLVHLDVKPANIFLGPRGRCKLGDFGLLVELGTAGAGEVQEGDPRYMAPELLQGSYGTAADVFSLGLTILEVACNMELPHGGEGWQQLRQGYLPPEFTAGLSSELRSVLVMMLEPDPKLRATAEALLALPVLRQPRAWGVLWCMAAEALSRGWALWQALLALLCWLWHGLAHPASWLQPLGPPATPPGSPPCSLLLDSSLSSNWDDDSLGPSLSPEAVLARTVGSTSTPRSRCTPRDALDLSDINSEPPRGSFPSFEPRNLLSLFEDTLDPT

[4] = molecular target: T4, TRIM25 protein (Origene, TP303757) (UniProt Q14258 1-630); assay: MST; PKMYT1 (75-362) protein labelled with RED-NHS 2nd Generation, 40 nM, assay buffer with 0.05% Tween-20; TRIM25 in 2-fold dilution series; Monolith NT.115; without Mei; n = 3; conditions: both partners purified
T4 construct: TRIM25, E3 ubiquitin ligase; also called recombinant TRIM25; E3 ligase TRIM25; source: bought: Origene (TP303757)
T4 sequence (Q14258 whole entry): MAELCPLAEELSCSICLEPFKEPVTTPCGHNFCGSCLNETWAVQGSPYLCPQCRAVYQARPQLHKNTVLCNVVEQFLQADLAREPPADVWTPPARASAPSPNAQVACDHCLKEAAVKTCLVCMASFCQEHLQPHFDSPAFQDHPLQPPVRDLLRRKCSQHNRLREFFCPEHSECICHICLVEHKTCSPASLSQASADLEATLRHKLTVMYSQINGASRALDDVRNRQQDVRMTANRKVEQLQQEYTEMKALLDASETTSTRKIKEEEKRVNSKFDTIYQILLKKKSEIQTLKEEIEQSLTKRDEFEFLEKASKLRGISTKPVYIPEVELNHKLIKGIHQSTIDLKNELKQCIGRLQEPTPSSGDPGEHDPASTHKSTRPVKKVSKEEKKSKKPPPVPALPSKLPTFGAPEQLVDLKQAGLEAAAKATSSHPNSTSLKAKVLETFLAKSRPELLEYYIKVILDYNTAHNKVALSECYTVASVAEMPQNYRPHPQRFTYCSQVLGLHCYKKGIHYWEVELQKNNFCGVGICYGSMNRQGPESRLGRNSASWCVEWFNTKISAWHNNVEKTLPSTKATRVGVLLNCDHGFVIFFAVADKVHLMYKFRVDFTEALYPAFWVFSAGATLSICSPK

T1 sequence (Q14258 whole entry): as above

CN1C(=O)/C(=C2/C(=O)Nc3ccccc32)c2ccccc21 [Mei, Meisoindigo]
Kd [1]: 220 ± 100 nM | Kd [2]: 2180 ± 960 nM

CCN(CC)CCOc1ccc(Nc2ncc3cc(-c4c(Cl)cccc4Cl)c(=O)n(C)c3n2)cc1 [PD0166285]
IC50 [3]: 16.4 nM

B1: recombinant PKMYT1 (75-362) (domain or fragment, human, UniProt Q99640 75-362, looked up)
chain: T2 sequence (Q99640 75-362)
modifications: labelled with RED-NHS 2nd Generation dye for MST
notes: No cleavage of the His tag is described; also called protein kinase, membrane-associated tyrosine/threonine 1; source: E. coli BL21(DE3), purified (Ni-resin)
Kd [4]: 2940 nM
